# Assay results from patent US7160684B2, “Methods of selecting compounds for modulation of bladder function” (Wyeth, priority 2000, dated 2007).
# Like-named read-outs stand apart in the source and are kept apart here.
# What was measured:
# [1] = test system: isolated rat bladder strips; test: Isolated rat bladder strip contraction; details: Rattus norvegicus, n=4
# Protocol: Male Sprague-Dawley rats (200–400 grams) are euthanized by CO2 inhalation and exsanguination. Their urinary bladders are rapidly removed and placed in […] physiological salt solution (PSS) that contained the following (mM): NaCl (118.4), KCl (5), CaCl2 (2.5), MgSO4 (1.2), KH2PO4 (1.2), NaHCO3 (24.9) and D-glucose (11.1) gassed with O2/CO2 (95% /5%) to achieve a pH of 7.4. The dome of the bladder is isolated from the trigon region and this tissue is then cut into 4–5 mm wide by 10 mm long strips. One end is secured to the bottom of a water jacketed tissue bath and the other to a GRASS isometric force transducer (Grass Instruments, Quincy, Mass.). Tissues are pretensioned (0.25 to 0.5 grams), and after 30 minutes of equilibration are contracted with an additional 15 mM KCl (total of 20 mM) and again allowed to equilibrate until the preparations are contracting steadily. Any of a variety of compounds are administered directly into the tissue baths as sequential concentrations. Transducer signals are digitized (12 bit resolution) and analyzed on-line using a 586-based computer and custom software. The area under the contraction curve (AUC) is used as a measure of contractility since the spontaneous bladder contractions are irregular in amplitude and frequency. A 5-minute AUC value is taken 30 minutes after administration of each compound concentration to the tissue bath.
# We isolated rat bladder strips from male Sprague-Dawley rats as previously described, (Wojdan, A., Freeden, C., Woods, M., Oshiro, G., Spinelli, W. et al., J Pharmacol Exp Therap 289: 1410–1418 (1999)) and precontracted them with 20 mM KCl. The KCNQ channel agonist retigabine, was added to the tissue bath in increasing concentrations, and area under the contraction curve was analyzed.
# In another study, isolated rat bladder strips were precontracted with 60 mM KCl (FIG. 1).
# The difference in IC50s between 20 and 60 mM KCl depolarizations are consistent with a potassium channel opening mechanism.
# Rat bladder strips were isolated and prepared as previously described (Wojdan, A., Freeden, C., Woods, M., Oshiro, G., Spinelli, W. et al., J Pharmacol ExpTherap 289:1410–1418 (1999)). Preparations were contracted with either 20 or 60 mM KCl, or 200 nM carbachol. A five minute area under the contraction curve was acquired 20 minutes after addition of each concentration of retigabine using a 12 bit D/A and a 586 based personal computer running custom software. Message for KCNQ subunits was probed using quantitative rtPCR on an ABI PRISM 7700 Sequence Detection System (TAQMAN). Forward and reverse primers and TAQMAN probes were designed using published RNA sequences for human KCNQ1–5 and rat KCNQ 1–4 listed within the NCBI data base. Since no rat sequence for KCNQ5 were currently published, probes and primers were designed by BLAST analysis of rat Expressed Sequence Tags (EST) using the known mouse KNCQ5 sequence. From homologous EST sequences, a contiguous sequence of 384 base pairs was constructed. Probes and primers were designed against this sequence. BLAST analysis of our rat KCNQ5 probes and primer were selective for mouse and human KCNQ5 sequences. PCR products were confirmed by gel electrophoresis (data not shown). Cells for electrophysiology were prepared from rat bladder smooth muscle as previously described (Wojdan et al., 1999). Human bladder smooth muscle cells were obtained from Clonetics, San Diego, Calif. […]
# [2] = test system: cultured human bladder smooth muscle cells; test: Voltage clamp recording of outward current, human cells; type: cell-based; details: human bladder smooth muscle cells, FIG. 3d
# Protocol: Single cell recordings are performed with a List-Medical EPC-7 patch clamp amplifier (Adams & List Assoc., Westbury, N.Y.). Pipette electrodes had tip resistances of 2–4 MΩ and are filled with the following composition (mM): KCl (126.0), MgCl2.6H2O (4.5), ATP Mg salt (4.0), GTP tris salt (0.3), creatine PO4 (14.0), D-glucose (9.0), EGTA (9.0), HEPES (9.0). The pH is adjusted to 7.4 with KOH. Signals are acquired (3 kHz high frequency cut-off, 12 bit resolution) using a 586-based personal computer.
# Whole cell recordings are made using broken patch access. Currents are evoked using either voltage steps (Vh=−50; Vt=−60 to 40 mV) or voltage ramps (−60 to 40 mV at 3.3 mV/sec.). The exact voltage clamp protocols are well known in the art. After stability is achieved control currents are recorded. Next, test compound is added to the superfusate. Currents are recorded for 5 to 10 minutes or until compound effects reach steady state. This is followed either by washout or addition of antagonists (linopirdine, XE-991) to the superfusate.
# Cellular electrophysiological studies were conducted using both voltage and current clamp techniques (Hammill, O., P., Marty, A., Neher, E., Sakmann, B. & Sigworth, F. J.: Improved patch-clamp techniques for high-resolution current recordings from cells and cell-free membrane patches. Pflugers Arch 391: 85–100 (1981)) from Sprague-Dawley rat (200–400 grams) bladders as previously described, (Wojdan, A., Freeden, C., Woods, M., Oshiro, G., Spinelli, W. et al., J. Pharmacol Exp Therap 289: 1410–1418 (1999)) and from a human bladder, primary cell culture (Colnetics, San Diego, Calif.). In rat cells, the average, control resting membrane potential (RMP) was −29.0±4.5 mV. […]
# Rat bladder strips were isolated and prepared as previously described (Wojdan, A., Freeden, C., Woods, M., Oshiro, G., Spinelli, W. et al., J Pharmacol ExpTherap 289:1410–1418 (1999)). […] Message for KCNQ subunits was probed using quantitative rtPCR on an ABI PRISM 7700 Sequence Detection System (TAQMAN). […]
smiles,measurement,setting,value
"CCOC(=O)Nc1ccc(NCc2ccc(F)cc2)cc1N [retigabine, N-[2-amino-4-(4-fluorobenzylamino)-phenyl]carbamic acid ethyl ester]",IC50,"[1]; read-out: IC50 for inhibition of isolated rat bladder strip contractions, precontracted with 20 mM KCl, area under the contraction curve",1.4 ± 0.1 µM
same,IC50,"[1]; read-out: IC50 for inhibition of isolated rat bladder strip contractions, precontracted with 60 mM KCl",21.8 ± 0.8 µM
same,effect on outward current,[2],increased outward currents
same,effect on outward current,[2]; listed as Retigabine,increased an outward current
